The values below come from patent publication US4576956A, “Iodo propargylaminoisoxazoles as fungicides” (Shionogi & Co., Ltd., priority 1982, dated 1986).

One may read the MIC as the smallest concentration in the dilution series that meets the test's criterion for growth inhibition. The low end stands for greater potency, the high end for weaker potency.

SMILES strings stand for the structures. In brackets after ≈: the same amount, converted by molar mass.

One test has as its system fungi. The settings on record: prior art, Japanese patent publications; cited from earlier work.
The next test deals with Aspergillus fumigatus. Briefly: Test A-1 Anti-fungal Activity (MIC), microwell dilution. Type of test: cell-based. The conditions noted are these: in vitro, 1×10^5 cells/ml. The protocol: (§1) Test A-1 Anti-fungal Activity (MIC)
(§2) The concentration of the test cells was 1×10^5 cells/ml and the activity was measured by a microwell dilution method. The structure of the test compounds is referred to in the Examples.

For a further test, the system named is Candida albicans M-9. The description is as above. The format is cell-based. The conditions noted are these: M9, C. albicans M-9, in vitro, 1×10^5 cells/ml. The protocol: as §1, §2
The subject of test [1] is Trichophyton asteroides. The description is as above. The format is cell-based. The conditions noted are these: T. asteroides, in vitro, 1×10^5 cells/ml. The protocol:
as §1
The following results (Table 1) were obtained in an anti-fungal activity test in vitro against Aspergillus fumigatus, Candida albicans M-9 and Trichophyton asteroides. The concentration of the test cells was 1×10^5 cells/ml and the activity was measured by a microwell dilution method. The structure of the test compounds is referred to in the Examples.

Another test relates to Sclerotinia sclerotiorum. In words: Test B-2 Control Test to Sclerotinia Rot of Cucumber. Type of test: in vivo. The settings on record: 48 h, 2 days, read-out: Percent Disease Control. The protocol: Test B-2 Control Test to Sclerotinia Rot of Cucumber
Cucumber seedlings were sprayed with 2.5 ml of a test solution in the same manner as in Test B-1. Afterthe spraying, the seedlings were kept at 25°-26° C. for a day and three disks of 4 mm in diameter containing mycelia of Sclerotinia sclerotiorum were put on a primary leaf and then 10 μl of PD broth were dropped on the disks. The treated seedlings were kept ina greenhouse (20° C.) for 2 days and then the diameters of the disease spots were measured by a pair of slide callipers. [formula]

In the next test the test system is Fusarium oxysporum. In words: Test B-6 Control Test to Damping-off of Cucumber. The format is in vivo. The settings on record: F*, 500 ppm, soil drench, 2 weeks. The protocol: (§3) Test B-6 Control Test to Damping-off of Cucumber
(§4) Twenty cucumber seeds were sown into sterilized soil (150 ml) in a pot of 9 cm in diameter. The fungi, Phythium aphanidermatum, Fusarium oxysporum and Rhizoctonia solani were cultured on a wheat bran medium for 5 days and an additional 2 days thereafter were mixed with sterilized soil. The surface of the sown spots was covered with the above culture medium. A test solution (30 ml) at a prescribed concentration was poured into each pot. The pots were kept in a greenhouse (28° C.) for 1 week in the case of Pythium and Rhizoctonia and for 2 weeks in the case of Fusarium.
(§5) The disease degree was observed and percent disease degree was calculated by the following formula: […]
(§6) (1) No germination . . . x 4
(§7) (2) Germed but withered . . . x 3
(§8) (3) Disordered in 1/3 or more . . . x 2
(§9) (4) Disordered in less than 1/3 . . . x 1
(§10) (5) Not damaged . . . x 0 [formula]
(§11) The percent disease control was calculated in the same manner as in Test B-1.

The next test concerns Pythium aphanidermatum. In words: Test B-6 Control Test to Damping-off of Cucumber. The conditions noted are these: P*, 500 ppm, soil drench, 1 week. Type of test: in vivo. The protocol:
as §3, §4, §5, §6, §7, §8, §9, §10, §11

The subject of another test is Rhizoctonia solani. Briefly: Test B-6 Control Test to Damping-off of Cucumber. The format is in vivo. The settings on record: R*, 500 ppm, soil drench, 1 week. The method, then: as §3, §4, §5, §6, §7, §8, §9, §10, §11
Another test relates to Pyricularia oryzae. Type of test: in vivo. The settings on record: 500 ppm; rice plant blast, 24 hours + 7 days.
The next test deals with Mycoplasma gallisepticum. In words: minimum inhibition concentration. The conditions noted are these: Mycoplasmoides gallisepticum, one range for the listed compounds. The format is cell-based.
The test system of the next test is Candida albicans. In words: Test A-2 Anti-fungal Activity (MCC). The settings on record: 48 h, read-out: MCC (Minimal Cidal Concentration).
For test [2], the system named is Trichophyton asteroides. Briefly: Test A-2 Anti-fungal Activity (MCC). The settings on record: 168 h, read-out: MCC (Minimal Cidal Concentration).
Procedure: Some MCC (Minimal Cidal Concentration) values (Table 1) were obtained against Candida albicans and Trichophyton asteroides by the following method. After the MIC value was obtained by the microwell method, a loopful amount was picked up from the medium in which no growth of the fungus was observed, inoculated into a Subrouraud's glucose agar medium and incubated at 28° C. for 2 days in the case of C. albicans and for 7 days in the case of T. asteroides.
Test [3] deals with Colletotrichum lagenarium. Briefly: Test B-4 Control Test to Anthracnose of Cucumber. The format is in vivo. The conditions noted are these: 500 ppm, 3 + 3 days. The method, then:
Test B-4 Control Test to Anthracnose of Cucumber Each cucumber seedling was sprayed with 2.5 ml of a test solution in the same manner as in Test B-1. After the spraying, the seedlings were kept at 25°-26° C. for a day and were inoculated with five filter-paper disks of 6 mm in diameter saturated with a conidium suspension of Colletotrichum lagenarium at a concentration of 1×10^6 conidia/ml. The treated seedlings were kept in a greenhouse (25° C.) for 3 days and further kept at below 25° C. for 3 days. Standard of Evaluation The same as noted in Test B-3.

On to `Cc1cc(OCC#CI)no1` [3-(3-iodo-2-propynyl)oxy-5-methylisoxazole], for which the anti-fungal activity entry in the test with fungi was “anti-fungal and anti-septic agent for woods”.

On to `Cc1noc(N(C)CC#CI)c1C` [Comp. 20], for which the MIC against Aspergillus fumigatus is 0.8 µg/mL (≈ 2.76 µM); in the test on Candida albicans M-9, 0.8 µg/mL (≈ 2.76 µM); against Trichophyton asteroides [1], 0.8 µg/mL (≈ 2.76 µM); in the test on Mycoplasma gallisepticum it was 6.25 to 12.5 µg/mL (≈ 21.5 to 43.1 µM). In the test with Sclerotinia sclerotiorum, the pest or weed control at 500 ppm is 100%. For the same molecule, the “Percent Disease Control” value in the test on Fusarium oxysporum amounted to 57%; in the test with Pythium aphanidermatum, 100%; in the test on Rhizoctonia solani, 100%; in the test on Pyricularia oryzae it was 100%. In addition, the figures for the MFC in the test on Candida albicans and in the test on Trichophyton asteroides [2] were 50 µg/mL (≈ 172 µM) and 3.1 µg/mL (≈ 10.7 µM), respectively.

As to `IC#CCOc1noc2ccccc12` [3-(3-iodo-2-propynyloxy)benzisoxazole], the anti-fungal activity result in the test with fungi is on record as “has the same activity”.

For the molecule `Cc1noc(NCC#CI)c1C` [Comp. 19], the MIC in the test on Aspergillus fumigatus was 3.1 µg/mL (≈ 11.2 µM); against Candida albicans M-9, 0.8 µg/mL (≈ 2.9 µM); in the test with Trichophyton asteroides [1], 0.8 µg/mL (≈ 2.9 µM); in the test with Mycoplasma gallisepticum, 6.25 to 12.5 µg/mL (≈ 22.6 to 45.3 µM). In the test with Sclerotinia sclerotiorum, the pest or weed control at 500 ppm was 100%. The “Percent Disease Control” value in [3] is on record as 100%; with Fusarium oxysporum, 78%; in the test on Pythium aphanidermatum it was 100%; with Rhizoctonia solani it was 100%; with Pyricularia oryzae, 100%.
